Consider two sequences from patent US8178506B2, “Oligomeric compounds and compositions for use in modulation of small non-coding RNAs” (Regulus Therapeutics Inc., priority 2003, dated 2012).

Entries after “also recorded” stand apart in the source; their conditions may differ.

In data set [1] the test system is mir-23b miRNA. Kind of data set: pGL3-mir-23b sensor luciferase assay in HeLa cells. The settings on record: HeLa, 1.3-, 5- or 20 nM. It is filed as cell-based, human. From the text:
In order to assess the ability of miRNAs to bind predicted miRNA binding sites and regulate the expression of the luciferase reporter, in some embodiments, expression systems based on the pGL3-Control (Promega Corp., Madison Wis.) reporter vector and comprising either a mir-15a, mir-21, or a mir-23b miRNA binding site were developed and used in transient transfections of HeLa cells to determine whether the endogenous mir-15a, mir-21, or mir-23b miRNAs, respectively, could repress luciferase reporter gene expression.
The pGL3-mir-23b sensor plasmid was created by cloning the sequence ([…]; SEQ ID NO: 307), representing a sequence complementary to the mir-23b miRNA, into the Xba site of the pGL3-Control plasmid, placing the potential miRNA-binding site in the 3′UTR of the luciferase reporter. This reporter plasmid was used to transfect HeLa cells and it was observed that the endogenous mir-23b miRNA was able to inhibit luciferase expression from the pGL3-mir-23b sensor plasmid. Thus, to further evaluate the ability of the mir-23b miRNA to bind this target site encoded by the pGL3-mir-23b sensor plasmid, and to assess the ability of oligomeric compounds to interfere with mir-23b-mediated silencing, pGL3-mir-23b sensor-expressing HeLa cells were treated with varying concentrations (1.3-, 5- or 20 nM) of the following oligomeric compounds: ISIS Number 327889 (SEQ ID NO: 307), a phosphorothioate uniform 2′-MOE oligomeric compound, and ISIS Number 340925 (SEQ ID NO: 307), a 2′-MOE 5-10-8 gapmer oligomeric compound, both targeting mir-23b. The uniform 2′-MOE phosphorothioate oligomeric compound ISIS Number 327924 (SEQ ID NO: 342) targeting an unrelated miRNA (mir-129-2) was used as a negative control. The data are the average of three trials, and are presented in Table 43 as relative luciferase activity (normalized to pRL-CMV luciferase plasmid only, not treated with oligomeric compound).

In a further data set the test system is DIO mice. In words: Diet-induced obesity (DIO) mice. It is filed as in vivo. On the procedure: As described, supra, the C57BL/6 mouse strain is reported to be susceptible to hyperlipidemia-induced atherosclerotic plaque formation, and when these mice are fed a high-fat diet, they develop diet-induced obesity (DIO). Accordingly, the DIO mouse model is useful for the investigation of obesity and development of agents designed to treat these conditions. In one embodiment of the present invention, oligomeric compounds targeting miRNAs were tested in the DIO model. Normal C57/BL6 male mice were fed a high fat diet (40% fat, 41% carbohydrate, 18% protein) for 12 weeks before the study began. DIO mice were then randomized by weight and insulin values. Initial body fat composition was determined by Dual X-ray Absorptiometry (DEXA) Scan. DIO mice were then subcutaneously injected with oligomeric compounds of the invention at a dose of 25 mg/kg, twice weekly. DIO mice were treated with oligomeric compounds ISIS Numbers 327901 and 340927 targeting mir-143, ISIS Numbers 327892 and 340926 targeting mir-131/mir-9, ISIS Numbers 327878 and ISIS Number 345349 targeting mir-203, and ISIS Numbers 327889 and 340925, targeting mir-23b. […] DEXA scans were also performed at weeks 0, 3 and 5 after treatment with the oligomeric compounds to assess the fat mass to lean mass ratio. The effects of target inhibition on levels of plasma glucose and insulin, liver transaminases, cholesterol and triglycerides, were also assessed weekly by tail bleed, and after the treatment period, mice were sacrificed and liver and kidney heart, as well as white adipose tissue (WAT) tissues collected. The mRNA expression levels of the Glut4, aP2, HSL and PPARγ marker genes are also assessed. […] Furthermore, some improvement in body composition (a reduction in body weight and fat mass) was observed.

Data set [2] deals with mir-23b miRNA. In words: Northern blot of mir-23b in kidney of ob/ob mice. It is filed as in vivo, mouse. The settings on record: twice weekly at 25 mg/kg, saline = 100%. On the procedure:
In addition, Northern blot analyses were performed to quantitate the expression of mir-23b in kidney samples of ob/ob mice treated with oligomeric compounds of the present invention. To detect the mir-23b target, a target-specific DNA oligonucleotide probe with the sequence […] (SEQ ID NO: 307) was synthesized by IDT (Coralville, Iowa). The oligo probes were 5′ end-labeled with T4 polynucleotide kinase with (γ-^32P) ATP (Promega). The mir-23b specific DNA oligonucleotide probe was used to detect expression levels of the mir-23b miRNA in ob/ob mice treated (twice weekly at 25 mg/kg) with ISIS Numbers 327889, the uniform 2′-MOE oligomeric compound, or ISIS Number 340925, the 5-10-8 gapmer compound, both targeted to mir-23b, versus saline treated animals or animals treated with a control oligomeric compound, ISIS Number 116847 ([…]; SEQ ID NO: 844), a uniform 5-10-52′-MOE gapmer targeting an unrelated gene, PTEN. Expression levels were normalized against the U6 RNA and the expression levels of saline treated animals were set at 100%. […] In kidney samples from mice treated with the gapmer oligomeric compound targeting mir-23b, ISIS Number 340925, a 41% reduction in in vivo expression levels of the mir-23b miRNA was observed.

Data set [3] relates to preadipocytes / differentiating adipocytes. In words: Adipocyte differentiation assay, markers taken together. The settings on record: preadipocytes, 250 nM, day nine post-transfection, relative to ISIS-29848. In kind it is cell-based, human.
For another data set, the system named is ob/ob mice. In words: ob/ob mice: plasma parameters, food consumption, marker gene mRNA. It is filed as in vivo, mouse. The settings on record: six week old ob/ob mice. The source says: Leptin is a hormone produced by fat cells that regulates appetite. Deficiencies in this hormone in both humans and non-human animals leads to obesity. ob/ob mice have a mutation in the leptin gene which results in obesity and hyperglycemia. As such, these mice are a useful model for the investigation of obesity and diabetes and treatments designed to treat these conditions. ob/ob mice have higher circulating levels of insulin and are less hyperglycemic than db/db mice, which harbor a mutation in the leptin receptor. In accordance with the present invention, the oligomeric compounds of the invention are tested in the ob/ob model of obesity and diabetes.
Seven-week old male C57B1/6J-Lep ob/ob mice (Jackson Laboratory, Bar Harbor, Me.) are fed a diet with a fat content of 10-15% and are subcutaneously injected with the oligomeric compounds of the invention or a control compound at a dose of 25 mg/kg two times per week for 4 weeks. Saline-injected animals, leptin wildtype littermates (i.e. lean littermates) and ob/ob mice fed a standard rodent diet serve as controls. After the treatment period, mice are sacrificed and target levels are evaluated in liver, brown adipose tissue (BAT) and white adipose tissue (WAT). RNA isolation and target RNA expression level quantitation are performed as described by other examples herein.
To assess the physiological effects resulting from modulation of target, the ob/ob mice are evaluated at the end of the treatment period for serum lipids, serum free fatty acids, serum cholesterol (CHOL), liver triglycerides, fat tissue triglycerides and liver enzyme levels. Hepatic steatosis, or clearing of lipids from the liver, is assessed by measuring the liver triglyceride content. Hepatic steatosis is assessed by routine histological analysis of frozen liver tissue sections stained with oil red O stain, which is commonly used to visualize lipid deposits, and counterstained with hematoxylin and eosin, to visualize nuclei and cytoplasm, respectively.
The effects of target modulation on glucose and insulin metabolism are evaluated in the ob/ob mice treated with the oligomeric compounds of the invention. Plasma glucose is measured at the start of the treatment and after 2 weeks and 4 weeks of treatment. Plasma insulin is similarly measured at the beginning of the treatment, and following at 2 weeks and at 4 weeks of treatment. Glucose and insulin tolerance tests are also administered in fed and fasted mice. Mice receive intraperitoneal injections of either glucose or insulin, and the blood glucose and insulin levels are measured before the insulin or glucose challenge and at 15, 20 or 30 minute intervals for up to 3 hours.
The ob/ob mice that receive treatment are evaluated at the end of the treatment period for the effects of target modulation on the expression of genes that participate in lipid metabolism, cholesterol biosynthesis, fatty acid oxidation, fatty acid storage, gluconeogenesis and glucose metabolism. These genes include, but are not limited to, HMG-CoA reductase, acetyl-CoA carboxylase 1 and acetyl-CoA carboxylase 2, camitine palmitoyltransferase I and glycogen phosphorylase, glucose-6-phosphatase and phosphoenolpyruvate carboxykinase 1, lipoprotein lipase and hormone sensitive lipase. mRNA levels in liver and white and brown adipose tissue are quantitated by real-time PCR as described in other examples herein, employing primer/probe sets that are generated using published sequences of each gene of interest.
As described herein, leptin-deficient (ob/ob) mice, leptin receptor-deficient (db/db) mice and diet-induced obesity (DIO) mice are used to model obesity and diabetes. In accordance with the present invention, oligomeric compounds targeting mir-143, mir-131 (also known as mir-9) and mir-203 were tested in the ob/ob and db/db models. […]

Setting [4] is: 25 mg/kg twice weekly for four weeks.

Regarding “GTGGTAATCCCTGGCAATGTGAT [ISIS 327889] (chemistry not given here) [uniform 2′-MOE PS; targets mir-23b]”, the “expression of the luciferase reporter, pGL3-mir-23b sensor” value in the data set on mir-23b miRNA [1] is “de-repressed the expression of the luciferase reporter”. The “liver toxicity (plasma transaminase levels, weekly)” value with DIO mice (25 mg/kg s.c. twice weekly) is reported as “did not appear to cause liver toxicity”. In the data set on mir-23b miRNA [2], the “decrease in in vivo expression levels of the mir-23b miRNA” value is recorded as ~64%. Moreover, in data set [3], the “expression levels of markers of adipocyte differentiation (TG, leptin, aP2, HSL, Glut4, PPARγ)” value is given as “significantly reduce the expression levels of 5 of 6 markers of adipocyte differentiation; also recorded: reduce the expression of several hallmark genes of adipocyte differentiation”.
In the case of “GTGGTAATCCCTGGCAATGTGAT [ISIS 340925] (chemistry not given here) [2′-MOE 5-10-8 gapmer; targets mir-23b]”, in the data set with DIO mice (25 mg/kg s.c. twice weekly), the “increase in the liver transaminase AST” value is recorded as “approximately 2 fold”. In addition, the insulin levels entry in the data set on DIO mice (two and four week time points, vs saline) was “effective at reducing insulin levels”. Further, in the data set with ob/ob mice (setting [4]), the Triglycerides result is listed as “decrease in triglycerides in the fourth week”; the “plasma glucose levels in the fed state” value is “reductions in plasma glucose levels in the fed state at weeks two and four”. Further, the plasma transaminases entry in the data set on ob/ob mice (weeks two or four) is “did not exhibit an increase in plasma transaminases”. Besides, in the data set with mir-23b miRNA [2], the “decrease in in vivo expression levels of the mir-23b miRNA” value amounted to 41%.
